How the values were obtained:
LptB2FG [1] = target: T1, LptB2FG (Escherichia coli, UniProt P0A9V1+P0ADC6+P0AF98); design: gene lptF; settings: POPE/POPG liposomes; 20 mM MgCl2; pH 7.5; 37 °C; 0-5 mM ATP; no LPS
T1 sequence (P0AF98 1-366): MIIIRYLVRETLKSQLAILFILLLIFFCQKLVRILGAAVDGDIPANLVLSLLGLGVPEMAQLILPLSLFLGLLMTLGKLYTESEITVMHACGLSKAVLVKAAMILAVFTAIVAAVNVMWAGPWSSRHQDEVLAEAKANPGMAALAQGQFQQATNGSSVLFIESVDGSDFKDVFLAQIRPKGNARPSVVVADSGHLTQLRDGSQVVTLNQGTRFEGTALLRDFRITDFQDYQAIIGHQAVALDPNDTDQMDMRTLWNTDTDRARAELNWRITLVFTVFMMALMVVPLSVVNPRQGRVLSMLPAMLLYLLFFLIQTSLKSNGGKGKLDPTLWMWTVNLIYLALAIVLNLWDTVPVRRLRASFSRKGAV
T1 sequence (P0ADC6 1-360): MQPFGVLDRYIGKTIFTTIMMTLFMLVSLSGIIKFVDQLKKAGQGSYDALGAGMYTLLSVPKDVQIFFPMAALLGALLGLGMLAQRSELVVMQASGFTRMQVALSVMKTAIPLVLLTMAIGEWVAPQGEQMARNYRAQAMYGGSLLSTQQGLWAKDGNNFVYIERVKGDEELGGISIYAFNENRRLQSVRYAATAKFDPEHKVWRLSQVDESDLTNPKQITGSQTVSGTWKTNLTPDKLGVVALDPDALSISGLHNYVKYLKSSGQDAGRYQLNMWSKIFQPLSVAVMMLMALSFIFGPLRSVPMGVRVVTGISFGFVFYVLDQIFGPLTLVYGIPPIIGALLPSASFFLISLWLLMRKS
T1 sequence (P0A9V1 2-241): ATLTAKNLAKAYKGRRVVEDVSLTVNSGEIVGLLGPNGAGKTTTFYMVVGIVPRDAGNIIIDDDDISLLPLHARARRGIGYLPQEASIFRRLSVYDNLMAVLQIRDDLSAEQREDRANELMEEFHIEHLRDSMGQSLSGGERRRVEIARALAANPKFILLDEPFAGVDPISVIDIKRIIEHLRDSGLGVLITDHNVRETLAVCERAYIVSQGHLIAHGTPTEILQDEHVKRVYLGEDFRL

LptB2FGC = target: T2, LptB2FGC (Escherichia coli, UniProt P0A9V1+P0ADC6+P0AF98); assay: nanoDSF thermal shift; assay type: binding; settings: 2-fold molar excess of Ra-LPS; DDM micelles; pH 7.5; 5 mM MgCl2
T2 construct: gene lptF; in vitro assembled from LptB2FG (N-terminal His6 on LptB) and full-length LptC (C-terminal His6); liposomes or resolubilized in DDM; 2:1:1:1, 158 kDa; with Lipopolysaccharide export system protein LptC

LptB2FG [2] = target: T1, LptB2FG; assay: nanoDSF thermal shift; assay type: binding; design: gene lptF; full-length proteins, N-terminal His6-tag on LptB, pETDuet-1, expressed in E. coli, in DDM micelles or POPE/POPG liposomes; B2FG complex; settings: 2-fold molar excess of Ra-LPS; DDM micelles; pH 7.5; 5 mM MgCl2
LptB2FG complex [3] = target: T3, LptB2FG complex (E. coli, UniProt P0A9V1 1-241; P0AF98 1-366; P0ADC6 1-360); assay: native MS; LILBID-MS of LptB2FGC resolubilised in DDM micelles, apo state, 20 mM Tris-HCl pH 7.5, 0.05% DDM; settings: both partners purified
T3 construct: LptF, transmembrane domain subunit of the lipopolysaccharide transporter, E. coli; LptG, transmembrane domain subunit of the lipopolysaccharide transporter, E. coli; Uniformly 13C-labelled for the TEDOR experiments; also called 13C-LptB2FG; ABC transporter LptB2FG; source: E. coli, co-expressed from pETDuet-1, membranes solubilised in DDM, purified (Ni-NTA); expression as previously described; …
T3 sequence (looked up) 1: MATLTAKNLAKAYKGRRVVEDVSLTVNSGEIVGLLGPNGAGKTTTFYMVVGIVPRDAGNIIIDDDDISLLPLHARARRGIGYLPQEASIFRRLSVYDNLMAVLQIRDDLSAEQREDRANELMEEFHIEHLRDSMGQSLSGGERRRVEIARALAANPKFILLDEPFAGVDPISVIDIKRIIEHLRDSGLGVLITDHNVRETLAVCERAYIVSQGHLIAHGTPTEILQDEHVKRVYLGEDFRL
T3 sequence (looked up) 2: T1 sequence (P0AF98 1-366)
T3 sequence (looked up) 3: T1 sequence (P0ADC6 1-360)

LptB2FG complex [4] = target: T3, LptB2FG complex; assay: thermal shift assay (nanoDSF); LptB2FG and resolubilised LptB2FGC in 50 mM HEPES pH 7.5, 150 mM NaCl, 5 mM MgCl2, 5% glycerol, 0.05% DDM; 1 °C/min from 25 to 85 °C; first derivative of the 350 nm fluorescence; settings: both partners purified

Nc1ncnc2c1ncn2[C@@H]1O[C@H](COP(=O)(O)OP(=O)(O)OP(=O)(O)O)[C@@H](O)[C@H]1O [ATP]
malachite green ATPase assay, proteoliposomes (LptB2FG [1]): activity of LptB2FG and LptB2FGC was determined by measuring the release of inorganic phosphate

Ra-LPS
increase in melting temperature (LptB2FGC): -271 °C
shift in melting temperature (LptB2FG [2]): ~ 9 K

B1: LptC, full length with its transmembrane helix (natural protein, E. coli, UniProt P0ADV9 1-191, looked up)
chain: MSKARRWVIIVLSLAVLVMIGINMAEKDDTAQVVVNNNDPTYKSEHTDTLVYNPEGALSYRLIAQHVEYYSDQAVSWFTQPVLTTFDKDKIPTWSVKADKAKLTNDRMLYLYGHVEVNALVPDSQLRRITTDNAQINLVTQDVTSEDLVTLYGTTFNSSGLKMRGNLRSKNAELIEKVRTSYEIQNKQTQP
notes: LptC, E. coli, full length including the transmembrane helix; Isotope labelled for NMR (13C,15N-lysine or uniform 15N); also called 15N-LptC; 15N,13C-Lys-LptC; source: E. coli BL21(DE3), pBAD33.1, membranes solubilised in LS detergent, purified (Ni-NTA)
stoichiometry N (LptB2FG complex [3]): 1 LptC per LptB2FG
increase of melting temperature (nanoDSF) (LptB2FG complex [4]): 11 K

— publication PMC12498426, “Conformational Plasticity of LptC Regulates Lipopolysaccharide Transport by the LptB2FGC Complex” (Journal of the American Chemical Society, 2025)
